What was measured:
[1] = target: IDH1-R132H recombinant protein (Homo sapiens, UniProt O75874, R132H); assay: IDH1-R132H enzymatic assay (NADPH consumption, diaphorase/resazurin readout); format: biochemical; conditions: read-out: Enzyme IDH1 R132H IC50 Range
Protocol: (§1) Assays were performed in a 384-well black plate. An aliquot of 250 nL of compound was incubated with 10 μL of 30 nM IDH1-R132H or 10 nM IDH1-R132C recombinant protein in assay buffer (50 mM Tris pH=7.5, 150 mM NaCl, 5 mM MgCl2, 0.1% (w/v) Bovine Serum Albumin, and 0.01% Triton X-100) in each well at 25° C. for 15 minutes. After the plate was centrifuged briefly, an aliquot of 10 μL of 2 mM α-ketoglutarate and 20 μM NADPH solution prepared in assay buffer was then added to each well and the reaction was maintained at 25° C. for 45 minutes. An aliquot of 10 μL of diaphorase solution (0.15 U/mL diaphorase and 30 μM Resazurin in assay buffer) was added to each well. […] The IC50 of a given compound was calculated by fitting the dose response curve of inhibition of NADPH consumption at a given concentration with the four parameter logistic equation.

[2] = target: IDH1-R132C recombinant protein (Homo sapiens, UniProt O75874, R132C); assay: IDH1-R132C enzymatic assay (NADPH consumption, diaphorase/resazurin readout); format: biochemical; conditions: read-out: Enzyme IDH1 R132C IC50 Range
IDH1-R132C recombinant protein, sequence (O75874 whole entry R132C): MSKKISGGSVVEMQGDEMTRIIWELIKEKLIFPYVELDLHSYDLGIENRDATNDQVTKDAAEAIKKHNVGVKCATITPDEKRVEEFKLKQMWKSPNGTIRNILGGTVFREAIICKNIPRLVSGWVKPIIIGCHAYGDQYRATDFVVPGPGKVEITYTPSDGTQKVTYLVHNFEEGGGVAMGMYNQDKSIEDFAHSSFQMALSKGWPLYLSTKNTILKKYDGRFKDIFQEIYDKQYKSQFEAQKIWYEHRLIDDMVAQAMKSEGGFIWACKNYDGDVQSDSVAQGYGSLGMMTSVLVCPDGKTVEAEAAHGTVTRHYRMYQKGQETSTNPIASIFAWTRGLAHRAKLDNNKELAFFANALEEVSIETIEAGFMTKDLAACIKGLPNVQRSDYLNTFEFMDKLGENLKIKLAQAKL
Protocol: as §1

IDH1-R132H recombinant protein, sequence (O75874 whole entry R132H): as the sequence (O75874 whole entry R132C) above, with C132H counted along it

SMILES: N#Cc1ccc(NCc2cc3cc(Cl)ccc3[nH]c2=O)cc1O [Compound I-8, 4-{[(6-chloro-2-oxo-1,2-dihydroquinolin-3-yl)methyl]amino}-2-hydroxybenzonitrile]
- IC50 [1]: 0.1 to 1 µM
- IC50 [2]: > 1 µM

SMILES: COc1cc(NCc2cc3cc(Cl)c(OCc4ccccc4)cc3[nH]c2=O)ccc1C#N [Compound I-71, 4-({[7-(benzyloxy)-6-chloro-2-oxo-1,2-dihydroquinolin-3-yl]methyl}amino)-2-methoxybenzonitrile]
- IC50 [1]: 0.01 to 0.1 µM
- IC50 [2]: > 1 µM

SMILES: COc1cc(NCc2cc3cc(Cl)c(OCC4CCS(=O)(=O)CC4)cc3[nH]c2=O)ccc1C#N [Compound I-75, 4-[({6-chloro-7-[(1,1-dioxo-1λ^6-thian-4-yl)methoxy]-2-oxo-1,2-dihydroquinolin-3-yl}methyl)amino]-2-methoxybenzonitrile]
- IC50 [1]: 0.1 to 1 µM
- IC50 [2]: > 1 µM

SMILES: COc1cc(NCc2cc3cc(Cl)c(OCCn4nc(C)cc4C)cc3[nH]c2=O)ccc1C#N [Compound I-92, 4-[({6-chloro-7-[2-(3,5-dimethyl-1H-pyrazol-1-yl)ethoxy]-2-oxo-1,2-dihydroquinolin-3-yl}methyl)amino]-2-methoxybenzonitrile]
- IC50 [1]: 0.1 to 1 µM
- IC50 [2]: > 1 µM

SMILES: COc1cc(NCc2cc3cc(Cl)c(OCCCN(C)C)cc3[nH]c2=O)ccc1C#N [Compound I-82, 4-[({6-chloro-7-[3-(dimethylamino)propoxy]-2-oxo-1,2-dihydroquinolin-3-yl}methyl)amino]-2-methoxybenzonitrile]
- IC50 [1]: 0.1 to 1 µM
- IC50 [2]: > 1 µM

SMILES: COc1cc(NCc2cc3cc(Cl)c(OC4CCN(C)CC4)cc3[nH]c2=O)ccc1C#N [Compound I-66, 4-[({6-chloro-7-[(1-methylpiperidin-4-yl)oxy]-2-oxo-1,2-dihydroquinolin-3-yl}methyl)amino]-2-methoxybenzonitrile]
- IC50 [1]: 0.01 to 0.1 µM
- IC50 [2]: > 1 µM

SMILES: COc1cc(NCc2cc3cc(Cl)c(OCc4ccccn4)cc3[nH]c2=O)ccc1C#N [Compound I-58, 4-({[6-chloro-2-oxo-7-(pyridin-2-ylmethoxy)-1,2-dihydroquinolin-3-yl]methyl}amino)-2-methoxybenzonitrile]
- IC50 [1]: 0.01 to 0.1 µM
- IC50 [2]: 0.1 to 1 µM

SMILES: COc1cc(NCc2cc3ccc(O)cc3[nH]c2=O)ccc1C#N [Compound I-30, 4-{[(7-hydroxy-2-oxo-1,2-dihydroquinolin-3-yl)methyl]amino}-2-methoxybenzonitrile]
- IC50 [1]: 0.1 to 1 µM
- IC50 [2]: > 1 µM

SMILES: COc1cc(NCc2cc3cc(Cl)c(OCC(O)CN4CCOCC4)cc3[nH]c2=O)ccc1C#N (stereo not shown) [Compound I-59, 4-[({6-chloro-7-[2-hydroxy-3-(morpholin-4-yl)propoxy]-2-oxo-1,2-dihydroquinolin-3-yl}methyl)amino]-2-methoxybenzonitrile]
- IC50 [1]: 0.1 to 1 µM
- IC50 [2]: > 1 µM

SMILES: COc1cc(NCc2cc3cc(F)ccc3[nH]c2=O)ccc1C#N [Compound I-27, 4-{[(6-fluoro-2-oxo-1,2-dihydroquinolin-3-yl)methyl]amino}-2-methoxybenzonitrile]
- IC50 [1]: > 1 µM
- IC50 [2]: > 1 µM

SMILES: N#Cc1ccc(NCc2cc3cc(Cl)ccc3[nH]c2=O)cc1OC(F)(F)F [Compound I-10, 4-{[(6-chloro-2-oxo-1,2-dihydroquinolin-3-yl)methyl]amino}-2-(trifluoromethoxy)benzonitrile]
- IC50 [1]: 0.1 to 1 µM
- IC50 [2]: > 1 µM

SMILES: Cc1nnnn1-c1ccc(NCc2cc3cc(Cl)ccc3[nH]c2=O)cc1 [Compound I-38, 6-chloro-3-({[4-(5-methyl-1H-1,2,3,4-tetrazol-1-yl)phenyl]amino}methyl)-1,2-dihydroquinolin-2-one]
- IC50 [1]: 0.1 to 1 µM
- IC50 [2]: > 1 µM

SMILES: COc1cc(NCc2cc3cc(Cl)cc(OC)c3[nH]c2=O)ccc1C#N [Compound I-97, 4-{[(6-chloro-8-methoxy-2-oxo-1,2-dihydroquinolin-3-yl)methyl]amino}-2-methoxybenzonitrile]
- IC50 [1]: 0.1 to 1 µM
- IC50 [2]: > 1 µM

SMILES: COc1cc(NCc2cc3cc(Cl)c(OCCN4CCN(C)CC4)cc3[nH]c2=O)ccc1C#N [Compound I-88, 4-[({6-chloro-7-[2-(4-methylpiperazin-1-yl)ethoxy]-2-oxo-1,2-dihydroquinolin-3-yl}methyl)amino]-2-methoxybenzonitrile]
- IC50 [1]: 0.01 to 0.1 µM
- IC50 [2]: > 1 µM

SMILES: COc1cc(NCc2cc3cc(C(C)(C)C)ccc3[nH]c2=O)ccc1C#N [Compound I-24, 4-{[(6-tert-butyl-2-oxo-1,2-dihydroquinolin-3-yl)methyl]amino}-2-methoxybenzonitrile]
- IC50 [1]: 0.01 to 0.1 µM
- IC50 [2]: > 1 µM

SMILES: COc1cc(NCc2cc3cc(Cl)c(OCC(N)=O)cc3[nH]c2=O)ccc1C#N [Compound I-68, 2-[(6-chloro-3-{[(4-cyano-3-methoxyphenyl)amino]methyl}-2-oxo-1,2-dihydroquinolin-7-yl)oxy]acetamide]
- IC50 [1]: 0.01 to 0.1 µM
- IC50 [2]: 0.1 to 1 µM

SMILES: COc1cc2[nH]c(=O)c(CNc3ccc(C#N)c(OC)c3)cc2cc1F [Compound I-26, 4-{[(6-fluoro-7-methoxy-2-oxo-1,2-dihydroquinolin-3-yl)methyl]amino}-2-methoxybenzonitrile]
- IC50 [1]: 0.01 to 0.1 µM
- IC50 [2]: > 1 µM

SMILES: COc1cc(NCc2cc3cc(Cl)c(OCc4cc(C)n(C)n4)cc3[nH]c2=O)ccc1C#N [Compound I-70, 4-[({6-chloro-7-[(1,5-dimethyl-1H-pyrazol-3-yl)methoxy]-2-oxo-1,2-dihydroquinolin-3-yl}methyl)amino]-2-methoxybenzonitrile]
- IC50 [1]: 0.01 to 0.1 µM
- IC50 [2]: 0.1 to 1 µM

SMILES: COc1cc(NCc2cc3cc(Cl)c(OCCN4CCCC4=O)cc3[nH]c2=O)ccc1C#N [Compound I-86, 4-[({6-chloro-2-oxo-7-[2-(2-oxopyrrolidin-1-yl)ethoxy]-1,2-dihydroquinolin-3-yl}methyl)amino]-2-methoxybenzonitrile]
- IC50 [1]: 0.01 to 0.1 µM
- IC50 [2]: > 1 µM

SMILES: COc1cc(NCc2cc3cc(Cl)c(OCc4nccn4C)cc3[nH]c2=O)ccc1C#N [Compound I-78, 4-[({6-chloro-7-[(1-methyl-1H-imidazol-2-yl)methoxy]-2-oxo-1,2-dihydroquinolin-3-yl}methyl)amino]-2-methoxybenzonitrile]
- IC50 [1]: 0.01 to 0.1 µM
- IC50 [2]: 0.1 to 1 µM

SMILES: COc1cc(NCc2cc3cc(Cl)c(OCCN(C)C)cc3[nH]c2=O)ccc1C#N [Compound I-61, 4-[({6-chloro-7-[2-(dimethylamino)ethoxy]-2-oxo-1,2-dihydroquinolin-3-yl}methyl)amino]-2-methoxybenzonitrile]
- IC50 [1]: 0.01 to 0.1 µM
- IC50 [2]: > 1 µM

SMILES: COc1cc(NCc2cc3cc(Cl)c(OCc4nc(C(N)=O)no4)cc3[nH]c2=O)ccc1C#N [Compound I-79, 5-{[(6-chloro-3-{[(4-cyano-3-methoxyphenyl)amino]methyl}-2-oxo-1,2-dihydroquinolin-7-yl)oxy]methyl}-1,2,4-oxadiazole-3-carboxamide]
- IC50 [1]: 0.01 to 0.1 µM
- IC50 [2]: 0.1 to 1 µM

SMILES: COc1cc(NCc2cc3cc(Cl)c(OCCN4CCOCC4)cc3[nH]c2=O)ccc1C#N [Compound I-60, 4-[({6-chloro-7-[2-(morpholin-4-yl)ethoxy]-2-oxo-1,2-dihydroquinolin-3-yl}methyl)amino]-2-methoxybenzonitrile]
- IC50 [2]: 0.1 to 1 µM

SMILES: COc1cc(NCc2cc3cc(Cl)c(OCc4ccnc(C)c4)cc3[nH]c2=O)ccc1C#N [Compound I-73, 4-[({6-chloro-7-[(2-methylpyridin-4-yl)methoxy]-2-oxo-1,2-dihydroquinolin-3-yl}methyl)amino]-2-methoxybenzonitrile]
- IC50 [1]: 0.01 to 0.1 µM

Source: patent US10266495B2, “Phenyl quinolinone derivatives as mutant-isocitrate dehydrogenase inhibitors” (FORMA TM2, Inc., priority 2014, dated 2019)
